Data published in paper PMC10349806 (Nature Communications, 2023).
“And” between values parts separate entries of the source, which are not always exact repeats. Equal entries are not always repeated.

Key:
PfCRT variant E198A = molecular target: T1, PfCRT variant E198A (Plasmodium falciparum, UniProt Q9N623, A220S/E198A/I356T/K76T/M74I/N326S/N75E/Q271E/R371I); test: CQ uptake assay, oocytes expressing E198A; assay type: cell-based
T1 sequence (Q9N623 1-424 M74I/N75E/K76T/E198A/A220S/Q271E/N326S/I356T/R371I): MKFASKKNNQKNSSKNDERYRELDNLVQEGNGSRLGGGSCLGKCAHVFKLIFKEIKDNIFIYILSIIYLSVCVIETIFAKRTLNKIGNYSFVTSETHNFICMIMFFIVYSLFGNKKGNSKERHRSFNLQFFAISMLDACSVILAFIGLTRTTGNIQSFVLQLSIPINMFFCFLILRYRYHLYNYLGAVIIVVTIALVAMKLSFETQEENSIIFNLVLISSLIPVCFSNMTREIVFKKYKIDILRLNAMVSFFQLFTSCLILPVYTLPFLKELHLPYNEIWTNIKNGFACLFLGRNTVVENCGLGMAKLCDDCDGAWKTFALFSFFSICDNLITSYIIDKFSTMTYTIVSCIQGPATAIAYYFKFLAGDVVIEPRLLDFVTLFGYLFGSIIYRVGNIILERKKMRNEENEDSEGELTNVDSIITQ
Procedure: (§1) Site-directed mutagenesis of PfCRT^Dd2 was performed as described using the megaprimer method with overlap extension[21],[54]. The primer pairs used are listed in Supplementary Table 6. Please note that a codon-optimized and oocyte-adapted version of PfCRT^Dd2 was used[22] (Supplementary Fig. 16). The resulting DNA fragment was cloned into the SP64T expression vector and verified by sequencing.
(§2) Oocytes were obtained as described previously. Briefly, adult (>2 years old) female X. laevis frogs (NASCO) were anesthetized in a cooled solution of ethyl 3-amino benzoate methanesulfonate (0.1%, w/v), followed by a surgical removal of parts of the ovary. The ovary lobes were carefully dissected and small pieces of oocytes were incubated in Ca^2+-free ND96 buffer (96 mM NaCl, 2 mM KCl, 1 mM MgCl2 buffered with 5 mM HEPES/NaOH, pH 7.5) supplemented with collagenase D (0.1%, w/v; Roche), BSA (0.5%, w/v), and 9 mm Na2HPO4 at 18 °C for 14-16 h while gentle shaking. After incubation, the oocytes were carefully washed several times with ND96 buffer (96 mM NaCl, 2 mM KCl, 1.8 mM CaCl2, 1 mM MgCl2 buffered with 5 mM HEPES/NaOH, pH 7.5) supplemented with 100 mg l^−1 gentamycin). Defolliculated and healthy-looking stage V-VI oocytes were manually selected for RNA microinjection. The RNA was generated as following: The codon-optimized sequences of PfCRT variants were cloned into the pSP64T expression vector. After vector linearization using the restriction endonucleases BamHI or SalI (New England Biolabs), transcription was performed using the in vitro SP6 mMessage mMachine Kit (Ambion)[34]. The obtained RNA was kept at −80 °C and diluted with nuclease-free water to a concentration of 0.6 μg μl^−1. Precision-bore glass capillary tubes (3.5-inch glass capillaries; Drummond Scientific Co.) were pulled on a vertical puller (P-87 Flaming/Brown micropipette puller, Sutter Instrument Co.), graduated, and placed on a microinjector (Nanoject II Auto-Nanoliter Injector, Drummond Scientific Co.). 50 nl of nuclease-free water alone (control oocytes) or 50 nl of 0.6 μg μl^−1 RNA were injected under stereomicroscopic control. Injected oocytes were incubated for 46–72 h at 18 °C with twice-daily buffer changes before usage in experiments.
Drug uptake assays were performed as described previously[21],[22],[24],[34]. […] The direction of radio-labeled drug transport is here from the mostly acidic extracellular solution (pH 4.5 or 6.0, as indicated) into the oocyte cytosol (pH ∼ 7.2), which corresponds to the efflux of drug from the acidic digestive vacuole (pH 5.2) into the parasite cytoplasm (pH 7.2). The topology of PfCRT in the oolemma is such that both the N- and C-terminus face the extracellular milieu[3],[22]. In the parasite, the N- and C-terminus face the lumen of the digestive vacuole. CQ uptake kinetics were performed by incubating oocytes in ND96 buffer adjusted to a pH of 4.5, 5.0, 5.5, or 6.0 and supplemented with 50 nM [^3H]CQ and one of 7 different CQ concentrations (10 µM, 50 µM, 100 µM, 200 µM, 300 µM, 400 µM, 500 µM CQ). The reaction was stopped at the 60 min time point, which is in the linear uptake range[22],[34] (Supplementary Fig. 17). […] The radioactivity of each sample was measured using a liquid scintillation analyzer Tri-Carb 4910 TR (PerkinElmer). Oocytes that were injected with water instead of RNA were analyzed in parallel, representing the uptake of a drug by diffusion and/or endogenous permeation pathways. […]

PfCRT variant E207Q = test: CQ uptake assay, oocytes expressing E207Q; assay type: cell-based, Plasmodium falciparum
Procedure: as §1, §2
Drug uptake assays were performed as described previously[21],[22],[24],[34]. […] The direction of radio-labeled drug transport is here from the mostly acidic extracellular solution (pH 4.5 or 6.0, as indicated) into the oocyte cytosol (pH ∼ 7.2), which corresponds to the efflux of drug from the acidic digestive vacuole (pH 5.2) into the parasite cytoplasm (pH 7.2). The topology of PfCRT in the oolemma is such that both the N- and C-terminus face the extracellular milieu[3],[22]. In the parasite, the N- and C-terminus face the lumen of the digestive vacuole. […] For determination of the amount of drug uptake for each oocyte, the reaction medium was removed and the oocytes were washed three times with 2 ml of ice-cold ND96 buffer. Each oocyte was individually transferred to a scintillation vial containing 5% sodium dodecyl sulfate (200 μl) for lysis. […] Oocytes that were injected with water instead of RNA were analyzed in parallel, representing the uptake of a drug by diffusion and/or endogenous permeation pathways. […] The specific PfCRT-mediated uptake was determined by subtracting the corresponding background value measured in water-injected oocytes from that of PfCRT-expressing oocytes. […]

[1] = E198A, 50 µM CQ, 1 h, mean ± SEM

For `CCN(CC)CCCC(C)Nc1ccnc2cc(Cl)ccc12` (stereo not shown) [CQ, chloroquine], the “Activity at pH 4.5” value (PfCRT variant E198A; [1]) was 1.23 ± 0.15 pmol h-1 oocyte-1, the “Activity at pH 6.0” value (PfCRT variant E198A; [1]) was 3.10 ± 0.44 pmol h-1 oocyte-1 and the R-value (PfCRT variant E198A; E198A, CQ transport at pH 4.5 / pH 6.0) was 0.44 ± 0.11. The “E198A transport activity pH 4.5” value (PfCRT variant E198A; pH 4.5, single replicates, Fig 1d left) was 1.49 pmol oocyte-1 h-1 and 1.34 pmol oocyte-1 h-1 and 0.87 pmol oocyte-1 h-1, the “E198A transport activity pH 6.0” value (PfCRT variant E198A; pH 6.0, single replicates, Fig 1d left) was 2.08 pmol oocyte-1 h-1 and 3.94 pmol oocyte-1 h-1 and 3.27 pmol oocyte-1 h-1 and the “Activity at pH 4.5” value (PfCRT variant E207Q; E207Q, 50 µM CQ, 1 h, mean ± SEM) was 2.15 ± 0.52 pmol h-1 oocyte-1. The R-value (PfCRT variant E207Q; E207Q, CQ transport at pH 4.5 / pH 6.0) was 0.88 ± 0.01, the “E207Q transport activity pH 4.5” value (PfCRT variant E207Q; pH 4.5, individual replicates, Fig 6b) was 1.41 pmol oocyte-1 h-1 and 3.42 pmol oocyte-1 h-1 and 1.62 pmol oocyte-1 h-1 and the “E207Q transport activity pH 6.0” value (PfCRT variant E207Q; pH 6.0, individual replicates, Fig 6b) was 1.59 pmol oocyte-1 h-1 and 3.69 pmol oocyte-1 h-1 and 1.95 pmol oocyte-1 h-1. The “E207Q R-value” (PfCRT variant E207Q; ratio of activity pH 4.5 / pH 6.0) was 0.89 and 0.93 and 0.83.
